Laboratory results: patent US7585859B2, “PDE4B inhibitors and uses therefor” (Plexxikon, Inc., priority 2004, dated 2009)
Read-outs that look alike come from different tables or passages of the source.

Assays:
[1] = biological target: T1, PDE4B: The catalytic domain of human PDE4B from S152-S528 (Homo sapiens, UniProt Q07343); test: PDE4 IC50 determination by Scintillation Proximity Assay, PDE4B; assay type: biochemical
T1 construct: His6 (N); thrombin cleavage site (N); made in house; host or cells: E. coli
In short: (§1)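 Enzyme was added to compound and [^3H]cAMP, then incubated 30 min at 30° (PDE4B 80 ng/ml; PDE4D 4 ng/ml). Product [^3H]AMP bound to SPA beads and was counted. IC50 was fitted by non-linear regression against DMSO and roflumilast controls.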

PDE4D = biological target: T2, PDE4D (Homo sapiens, UniProt Q08499); test: PDE4 IC50 determination by Scintillation Proximity Assay, PDE4D; assay type: biochemical
T2 construct: PDE4D: The catalytic domain of human PDE4B from S3 16-V692; His6 (N); thrombin cleavage site (N); made in house; host or cells: E. coli
In short: as §1

[2] = biological target: T3, full-length human PDE4B2 isozyme (Homo sapiens, UniProt Q07343); test: PDE4 IC50 determination by Scintillation Proximity Assay, PDE4B2; assay type: biochemical
T3 construct: The full-length human PDE4B2 isozyme; His6 (N); TEV cleavage site (N); made in house; host or cells: baculovirus infected insect cells (unpurified lysate)
In short: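 Unpurified His6-TEV-tagged full-length human PDE4B2 from baculovirus-infected insect cell lysate (2.5 μl of 50% glycerol stock/ml) hydrolysed [3H]cAMP in 50 mM Tris pH 7.5, 8.3 mM MgCl, 1.7 mM EGTA, 0.01% BSA for 30 min at 30°. Stopped with SPA beads in 18 mM ZnSO4; [3H]AMP scintillation counted, IC50 by non-linear regression.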

[3] = biological target: T4, full-length human PDE4D5 isozyme (Homo sapiens, UniProt Q08499); test: PDE4 IC50 determination by Scintillation Proximity Assay, PDE4D5; assay type: biochemical
T4 construct: The full-length human PDE4D5 isozyme; His6 (N); TEV cleavage site (N); made in house; host or cells: baculovirus infected insect cells (unpurified lysate)
In short: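 Unpurified His6-tagged full-length human PDE4D5 from baculovirus-infected insect cell lysate, 0.083 μl glycerol stock/ml, hydrolysed [3H]cAMP in Tris pH 7.5/MgCl/EGTA buffer, 30 min at 30°. ZnSO4/SPA beads stop; [3H]AMP counted. Controls: DMSO and roflumilast; 11-point duplicate curves, nonlinear-regression IC50.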

[4] = tested on: TNF alpha production in LPS-stimulated human blood (Buffy coat); test: TNF alpha production by stimulation with LPS in whole blood cultures; assay type: cell-based
Protocol: Compounds were assayed to generate IC50 numbers as described in Example 54, using the following assay protocol (see Tables 3B and 4B for compounds and results).
Protocol • 1) Obtained 20 mM DMSO aliquots of desired concentrations of compounds (see Tables 3B and 4B for compounds tested and results). Placed 2 μl/well compound in DMSO in the top row of the dilution plate. Added 98 μl of RPMI 1640 media w/2.5% heat inactivated FBS.
2) Made the same media with 2% DMSO in it. Added 60 μl/well to well to make compound titration. Took 30 μl of top row and did a 1:3 dilution down the plate. In column 11 added 4 wells of 50 μM roflumilast and piclamilast. In column 12 added 2% DMSO media.
3) Transfered 20 μl/well into assay plates in duplicate.
4) Obtained human Buffy coat.
5) Diluted blood with 7 volumes of RPMI 1640 media with 1% P/S and 2.5% heat inactivated FBS (a 1:8 dilution)
6) Added160 μl/well of diluted blood to the assay plates.
7) Incubated for 1 hour at 37 degrees 5% CO2
8) Diluted LPS (which was already diluted to 1 mg/ml in PBS, 20 μl aliquots frozen −20 C.) to 10× desired final concentration to make a […] dilution (final concentration should be 100 ng/ml).
9) After 1 hour incubation added 20 μl/well of LPS to plates. A non-LPS treated background was also prepared. Samples were put on the shaker for a one minute 900 rpm.
10) Incubated for 4 hours in incubator.
11) After incubation, put on the shaker for a one minute 900 rpm and spun plate at 100 g for 10 minutes, Decel 5.
12) Carefully pipetted the top 75 μl supernatant into a new plate. Samples were frozen as needed.
Biosource hu-TNF ALPHA ELISA
• REAGENTS USED • DPBS 10×: VWR45000-428 (dilute 1:10 with Millipore Water) • TWEEN 20: FISHER BP337-500 • CAPTURE AND DETECTION ANTIBODIES: R&D DY510E • STREP-HRP: Biosource part SNN4004X • COLOR REAGENTS: R&D DY994 • STOP SOLUTION: from chemistry, or R&D DY999 • 1) Thawed samples to RT as needed. • 2) Added 50 μl Incubation buffer/well. • 3) Added 50 μl blood samples +50 μl Diluent buffer • 4) Incubated 2 hours at room temp. • 5) Washed the plate 4× with 300 μl/well wash buffer with microfill. Wash buffer was DPBS with 0.05% Tween pH 7.2-7.4 • 6) Added 100 μl biotinylated anti-TNFalpha • 7) Incubateed 1 hours at room temp. • 8) Washed the plate 4× with 300 μl/well wash buffer with microfill. Wash buffer was DPBS with 0.05% Tween pH 7.2-7.4 • 9) Added^100 μl Streptavidin-HRP working solution • 10) Incubated for 30 minutes at room temp. • 11) Washed the plate 4× with 300 μl/well wash buffer with microfill. Wash buffer was DPBS with 0.05% Tween pH 7.2-7.4 • 12) Added 100 μl Chromagen • 13) Incubated in the dark for 30 minutes until the blue color developed satisfactorily. • 14) Added 100 μl/well stop solution (2 N H2SO4). • 15) Read plate on WallacVictor at 450 nm for 0.1 sec/well

[5] = tested on: TNFα levels in serum of LPS-challenged rats; test: Rat inhibition studies: serum TNFα after iv LPS challenge; assay type: in vivo; conditions: po, 2 h, rat in vivo, 100 mg/kg po, 2 hr challenge delay, percent decrease in TNFα versus vehicle, read-out: % inhibition r TNFα
Protocol: All studies were done with male rats CD (SD) IGS BR (Crl) (Charles River, France), which were grouped in to 5 animal groups.
At the end of the acclimatization period, the non-fasted rats were weighed, individually identified on the tail with a permanent marker and administered by oral (po) or interperitoneal (ip) route with either vehicle, reference or test compound in a volume of 10 mL/kg adapted to the body weight. The animals were gathered in groups of 5 animals in a polystyrene labeled cage with sawdust covered floors. 2-hours after vehicle, reference or test substance administration, rats received an intravenous (iv) injection of 0.1 mg/kg LPS in a volume of 1 mL/kg of body weight. 2 h after LPS challenge (or as indicated in Tables 3B and 4B), blood samples were collected into tubes without anticoagulant by retro-orbital puncture under gas (isoflurane) anesthesia. Samples were allowed to clot at room temperature for 5 to 10 min then put on ice until there were prepared by centrifugation (6000×g for 3 min at 4° C.) and stored at −20° C. until use. TNFα levels were measured in serum samples in duplicate by ELISA technique according to the manufacturer's procedure (Rat TNFα kit Quantikine M (RTA00, R&D System, France)). Data are reported as percent decrease in observed TNFα levels versus TNFa levels observed for vehicle dosed animal groups.

[6] = Table 1B, Formula I compounds, read-out: IC50 PDE4B
[7] = Table 1B, Formula I compounds, read-out: IC50 PDE4D
[8] = Table 1B, Formula I compounds, read-out: IC50 PDE4B2
[9] = Table 1B, Formula I compounds, read-out: IC50 PDE4D5
[10] = Homo sapiens, Table 1B, Formula I compounds, read-out: IC50 h TNFα
[11] = first part of Table 2B (2-1 to 2-22), read-out: IC 50 vs. indicated assay PDE4B
[12] = first part of Table 2B (2-1 to 2-22), read-out: IC 50 vs. indicated assay PDE4B2
[13] = first part of Table 2B (2-1 to 2-22), read-out: IC 50 vs. indicated assay PDE4D5
[14] = human whole blood, LPS 100 ng/ml, read-out: IC 50 vs. indicated assay h TNFα
[15] = second part of Table 2B (2-23 to 2-103), column 3, column is PDE4B in first part, read-out: IC 50 vs. indicated assay h TNFα
[16] = second part of Table 2B (2-23 to 2-103), column 5, column is PDE4D in first part, read-out: IC 50 vs. indicated assay h TNFα
[17] = second part of Table 2B (2-23 to 2-103), column 4, column is PDE4B2 in first part, read-out: IC 50 vs. indicated assay h TNFα

T2 sequence (Q08499 380-756): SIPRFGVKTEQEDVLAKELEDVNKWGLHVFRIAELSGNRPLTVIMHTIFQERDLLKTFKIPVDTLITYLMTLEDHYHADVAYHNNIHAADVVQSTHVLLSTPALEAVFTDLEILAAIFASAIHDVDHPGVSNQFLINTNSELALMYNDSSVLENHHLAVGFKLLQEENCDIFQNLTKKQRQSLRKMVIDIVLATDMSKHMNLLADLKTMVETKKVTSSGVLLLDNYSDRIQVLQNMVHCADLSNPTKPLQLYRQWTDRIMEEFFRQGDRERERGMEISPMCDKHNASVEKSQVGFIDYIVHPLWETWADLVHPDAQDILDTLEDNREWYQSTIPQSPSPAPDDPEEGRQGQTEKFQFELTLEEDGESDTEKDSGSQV
T1 sequence (Q07343 with tags, fused parts or gaps): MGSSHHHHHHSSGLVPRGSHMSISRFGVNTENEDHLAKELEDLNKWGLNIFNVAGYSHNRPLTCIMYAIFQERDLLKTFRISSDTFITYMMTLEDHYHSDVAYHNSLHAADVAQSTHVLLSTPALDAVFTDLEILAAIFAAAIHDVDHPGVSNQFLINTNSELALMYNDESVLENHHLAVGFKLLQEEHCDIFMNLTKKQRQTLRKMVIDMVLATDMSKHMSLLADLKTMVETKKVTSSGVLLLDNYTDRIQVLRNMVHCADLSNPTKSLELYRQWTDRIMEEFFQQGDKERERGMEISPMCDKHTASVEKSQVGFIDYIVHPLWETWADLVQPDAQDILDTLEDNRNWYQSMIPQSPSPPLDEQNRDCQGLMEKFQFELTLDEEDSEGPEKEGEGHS
T3 sequence (Q07343 1-564 isoform Q07343-2): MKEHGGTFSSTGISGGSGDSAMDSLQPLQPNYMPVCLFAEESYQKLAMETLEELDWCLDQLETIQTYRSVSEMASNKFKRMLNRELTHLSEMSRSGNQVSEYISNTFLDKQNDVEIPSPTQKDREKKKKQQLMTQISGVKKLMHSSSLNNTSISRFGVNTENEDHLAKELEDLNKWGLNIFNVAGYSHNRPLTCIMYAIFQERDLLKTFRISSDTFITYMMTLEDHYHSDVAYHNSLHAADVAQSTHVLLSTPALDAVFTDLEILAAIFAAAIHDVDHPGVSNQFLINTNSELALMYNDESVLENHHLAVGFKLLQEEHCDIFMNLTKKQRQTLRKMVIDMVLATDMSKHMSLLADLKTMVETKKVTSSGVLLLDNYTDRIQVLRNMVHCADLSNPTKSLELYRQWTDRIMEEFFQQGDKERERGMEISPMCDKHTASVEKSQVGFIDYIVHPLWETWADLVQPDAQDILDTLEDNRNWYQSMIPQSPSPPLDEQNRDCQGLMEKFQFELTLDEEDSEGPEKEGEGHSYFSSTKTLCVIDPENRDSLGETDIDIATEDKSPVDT
T4 sequence (Q08499 1-745 isoform Q08499-6): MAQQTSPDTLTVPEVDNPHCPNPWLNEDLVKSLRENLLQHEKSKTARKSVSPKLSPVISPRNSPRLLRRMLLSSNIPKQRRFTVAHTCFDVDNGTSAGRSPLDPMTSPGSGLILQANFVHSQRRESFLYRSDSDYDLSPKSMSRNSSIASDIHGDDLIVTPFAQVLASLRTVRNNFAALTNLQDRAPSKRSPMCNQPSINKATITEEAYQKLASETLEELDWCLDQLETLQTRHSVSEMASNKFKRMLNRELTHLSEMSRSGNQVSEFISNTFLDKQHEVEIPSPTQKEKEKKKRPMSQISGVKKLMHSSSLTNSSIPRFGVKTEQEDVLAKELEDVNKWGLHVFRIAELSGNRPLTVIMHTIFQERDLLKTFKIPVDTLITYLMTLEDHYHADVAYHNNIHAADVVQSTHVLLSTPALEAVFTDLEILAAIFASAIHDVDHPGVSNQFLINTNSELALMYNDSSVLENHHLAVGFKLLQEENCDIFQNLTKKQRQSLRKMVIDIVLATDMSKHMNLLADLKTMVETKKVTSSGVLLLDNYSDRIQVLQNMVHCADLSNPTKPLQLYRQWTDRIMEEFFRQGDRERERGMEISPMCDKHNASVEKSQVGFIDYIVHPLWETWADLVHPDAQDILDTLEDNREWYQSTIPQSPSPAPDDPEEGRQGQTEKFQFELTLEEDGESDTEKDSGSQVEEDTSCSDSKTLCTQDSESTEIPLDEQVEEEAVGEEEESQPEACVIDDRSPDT

N#Cc1c(Nc2ccccc2)sc(C(=O)c2ccc(Cl)cc2)c1N [Compound 1-20, 4-Amino-5-(4-chloro-benzoyl)-2-phenylamino-thiophene-3-carbonitrile]
IC50 [1, 6]: < 10 µM | IC50 (PDE4D; [7]): < 10 µM | IC50 [2, 8]: < 10 µM | IC50 [3, 9]: < 10 µM | IC50 [4, 10]: < 10 µM

COc1ccc(OC)c(C(=O)c2sc(NC3CCCC3)c(C#N)c2N)c1 [Compound 1-40]
IC50 [1, 6]: < 10 µM | IC50 (PDE4D; [7]): < 10 µM | IC50 [2, 8]: < 10 µM | IC50 [3, 9]: < 10 µM | IC50 [4, 10]: > 10 µM

COc1ccc(Nc2sc(C(=O)c3ccccc3Cl)c(N)c2C#N)cc1 [Compound 1-110, 4-Amino-5-(2-chloro-benzoyl)-2-(4-methoxy-phenylamino)-thiophene-3-carbonitrile]
IC50 [1, 6]: < 10 µM | IC50 (PDE4D; [7]): < 10 µM | IC50 [2, 8]: < 10 µM | IC50 [3, 9]: < 10 µM | IC50 [4, 10]: < 10 µM

CC(C)CNc1sc(C(=O)c2cc(-c3ccccc3)no2)c(N)c1C#N [Compound 1-209, 4-Amino-2-isobutylamino-5-(3-phenyl-isoxazole-5-carbonyl)-thiophene-3-carbonitrile]
IC50 [1, 6]: < 10 µM | IC50 (PDE4D; [7]): < 10 µM | IC50 [2, 8]: < 10 µM | IC50 [3, 9]: < 10 µM | IC50 [4, 10]: > 10 µM

Cc1nc(-c2cnccn2)sc1C(=O)c1sc(NC2CCCC2)c(C#N)c1N [Compound 1-219, 4-Amino-2-cyclopentylamino-5-(4-methyl-2-pyrazin-2-yl-thiazole-5-carbonyl)-thiophene-3-carbonitrile]
IC50 [1, 6]: < 10 µM | IC50 (PDE4D; [7]): < 10 µM | IC50 [2, 8]: < 10 µM | IC50 [3, 9]: < 10 µM | IC50 [4, 10]: < 10 µM

Cc1c(NC2CCCC2)sc(C(=O)c2cc(-c3ccccc3)no2)c1N [Compound 1-240, (3-Amino-5-cyclopentylamino-4-methyl-thiophen-2-yl)-(3-phenyl-isoxazol-5-yl)-methanone]
IC50 [1, 6]: < 10 µM | IC50 [2, 8]: < 10 µM | IC50 [3, 9]: < 10 µM | IC50 [4, 10]: < 10 µM

CCc1c(NC2CCCC2)sc(C(=O)c2cc(-c3ccccc3)no2)c1N [Compound 1-241, (3-Amino-5-cyclopentylamino-4-ethyl-thiophen-2-yl)-(3-phenyl-isoxazole-5-yl)-methanone]
IC50 [1, 6]: < 10 µM | IC50 [2, 8]: < 10 µM | IC50 [3, 9]: > 10 µM | IC50 [4, 10]: > 10 µM

COc1ccccc1Nc1sc(C(=O)c2cc(-c3ccccc3)no2)c(N)c1C#N [Compound 1-242]
IC50 [1, 6]: < 10 µM | IC50 [2, 8]: < 10 µM | IC50 [3, 9]: < 10 µM | IC50 [4, 10]: < 10 µM

CCC(C)Nc1sc(C(=O)c2cc(-c3ccc(Cl)c(Cl)c3)no2)c(N)c1C(N)=O (stereo not shown) [Compound 1-249, 4-Amino-2-sec butylamino-5-[3-(3,4-dichloro-phenyl)-isoxazole-5-carbonyl]-thiophene-3-carboxylic acid amide]
IC50 [1, 6]: < 10 µM | IC50 (PDE4D; [7]): < 10 µM | IC50 [3, 9]: > 10 µM | IC50 [4, 10]: > 10 µM

NC(=O)c1c(N)sc(C(=O)c2cc(-c3ccccc3)no2)c1N [Compound 1-255, 2,4-Diamino-5-(3-phenyl-isoxazole-5-carbonyl)-thiophene-3-carboxylic acid amide]
IC50 [2, 8]: > 10 µM | IC50 [3, 9]: > 10 µM | IC50 [4, 10]: > 10 µM

Nc1nc(NC2CCCC2)sc1C(=O)c1cc(-c2ccccc2)no1 [Compound 2-9, (4-Amino-2-cyclopentylamino-thiazol-5-yl)-(3-phenyl-isoxazol-5-yl)-methanone]
IC50 [1, 11]: < 10 µM | IC50 (PDE4D; first part of Table 2B (2-1 to 2-22), read-out: IC 50 vs. indicated assay PDE4D): < 10 µM | IC50 [2, 12]: < 10 µM | IC50 [3, 13]: < 10 µM | inhibition in vivo at 100 mg/kg [5]: > 20%

Nc1nc(NC2CCCC2)sc1C(=O)c1cc(-c2ccccc2)cs1 [Compound 2-19, (4-Amino-2-cyclopentylamino-thiazol-5-yl)-(4-phenyl-thiophen-2yl)-methanone]
IC50 [1, 11]: < 10 µM | IC50 [2, 12]: < 10 µM | IC50 [3, 13]: < 10 µM | IC50 [4, 14]: < 10 µM

Nc1nc(Nc2ccc(C(=O)O)cc2)sc1C(=O)c1ccccc1 [Compound 2-35, 4-(4-Amino-5-benzoyl-thiazol-2-ylamino)-benzoic acid]
IC50 [1, 15]: < 10 µM | IC50 (PDE4D; [16]): < 10 µM | IC50 [2, 17]: < 10 µM | IC50 [4, 14]: > 10 µM

Nc1nc(NC2CCCC2)sc1C(=O)c1ccc(Oc2ccccc2)cc1 [Compound 2-76, (4-Amino-2-cyclopentylamino-thiazol-5-yl)-(4-phenoxy-phenyl)-methanone]
IC50 [1, 15]: < 10 µM | IC50 (PDE4D; [16]): < 10 µM | IC50 [2, 17]: < 10 µM | IC50 [4, 14]: > 10 µM
